Test results: patent US20150273025A1, “APYRASE TREATMENTS” (THE REGENTS OF THE UNIVERSITY OF MICHIGAN, priority 2012, published 2015)
Where a SMILES comes first, the peptide text is derived from it. Bridges are numbered along the chain shown (N, C = ends). [ ]: non-standard residue; d: D form. The star is where a group is joined. Heptanoyl(5-Me) = CCC(C)CCCC(=O)*; Dab = NCC[C@H](N)C(=O)O

What was measured:
[1] = system: A. baumannii strain AC121; assay: Viable cell count (CFU) with colistin and apyrase; conditions: apyrase 2 U/ml; colistin at less than 20 μg/ml; colistin-resistant strain
Description: Approximately 10^5 to 10^6 CFU/ml of the colistin-resistant A. baumannii strain AC121 was grown in the presence of combinations of 0 and 2 U/ml of apyrase and approximately 0 to 20 μg/ml of colistin. After incubation, the numbers of viable cells were determined by counting the colony forming units (CFU) on the plate (data provided as CFU/ml).

[2] = system: Burkholderia vietnamiensis AU10214; assay: Viable cell count (CFU) with colistin and apyrase; conditions: apyrase 2 U/ml; colistin at less than 20 μg/ml
Description: Burkholderia vietnamiensis AU10214 was grown in the presence of combinations of 0 and 2 U/ml of apyrase and approximately 0 to 20 μg/ml of colistin. After incubation, the numbers of viable cells were determined by counting the colony forming units (CFU) on the plate (data provided as CFU/ml).

[3] = system: A. baumannii strain ATCC 19606; assay: Viable cell count (CFU) with colistin and apyrase; conditions: apyrase 1 and 2 U/ml; colistin 0.25 to 2 μg/ml; colistin alone at the same concentrations
Description: Approximately 10^6 CFU/ml of A. baumannii strain ATCC 19606 was grown on solid medium culture plates in the presence of combinations of 0, 1, and 2 U/ml of apyrase and 0, 0.25, 0.5, 1, and 2 μg/ml of colistin. After incubation, the numbers of viable cells were determined by counting the colony forming units (CFU) on the plate (data provided as CFU/ml). […] In these Examples, the colistin is colistin sulfate salt, catalog number C4461 from Sigma-Aldrich (St. Louis, Mo.) and the apyrase is catalog number M0393L from New England BioLabs Inc. (Ipswich, Mass.).

P. aeruginosa ATCC 27853 = assay: MIC from dose-kill curves, colistin alone or with apyrase; type: cell-based; conditions: 4 hours at 37° C., apyrase 2 U/ml in the combination
Description: (§1) Data were collected from systematic tests to investigate bacterial killing with colistin and apyrase combinations against ESKAPE bacteria in vitro. […] Dose-kill curves for 22 strains (colistin sensitive or resistant ˜10^6 CFU/ml) were generated after exposure to colistin at different concentrations by itself or in combination with apyrase (2 U/ml) for 4 hours at 37° C. Data were obtained from three independent experiments. […] The MIC of colistin and apyrase combinations was generally 2- to 8-fold lower in comparison to the MIC for colistin alone (FIG. 31 and Table 2). For Gram-positive strains, the MICs results obtained with colistin alone and with the combination of colistin and apyrase were very similar.

K. pneumonia AD = assay: as above; type: cell-based; conditions: 4 hours at 37° C., apyrase 2 U/ml in the combination
Description: as §1

B. multivorans AU0801 = assay: as above; type: cell-based; conditions: 4 hours at 37° C., apyrase 2 U/ml in the combination
Description: as §1

A. baumannii AC285 = assay: as above; type: cell-based; conditions: 4 hours at 37° C., apyrase 2 U/ml in the combination
Description: as §1

A. baumannii ATCC 19606 = assay: as above; type: cell-based; conditions: 4 hours at 37° C., apyrase 2 U/ml in the combination
Description: as §1

A. baumannii VBA9 = assay: as above; type: cell-based; conditions: 4 hours at 37° C., apyrase 2 U/ml in the combination
Description: as §1

P. aeruginosa AU7443 = assay: as above; type: cell-based; conditions: 4 hours at 37° C., apyrase 2 U/ml in the combination
Description: as §1

P. aeruginosa AU1292 = assay: as above; type: cell-based; conditions: 4 hours at 37° C., apyrase 2 U/ml in the combination
Description: as §1

P. aeruginosa PAO300 = assay: as above; type: cell-based; conditions: 4 hours at 37° C., apyrase 2 U/ml in the combination
Description: as §1

A. baumannii AC121 = assay: as above; type: cell-based; conditions: 4 hours at 37° C., apyrase 2 U/ml in the combination
Description: as §1

E. coli K-12 = assay: as above; type: cell-based; conditions: 4 hours at 37° C., apyrase 2 U/ml in the combination
Description: as §1

A. baumannii DMC1 [4] = assay: as above; type: cell-based; conditions: 4 hours at 37° C., apyrase 2 U/ml in the combination
Description: as §1

S. aureus ATCC 25923 = assay: as above; type: cell-based; conditions: 4 hours at 37° C., apyrase 2 U/ml in the combination
Description: as §1

[5] = system: P. aeruginosa strain AU1292; assay: Viable cell count (CFU) with colistin and apyrase; conditions: apyrase 2 U/ml; colistin at less than 20 μg/ml
Description: P. aeruginosa strain AU1292 was grown in the presence of combinations of 0 and 2 U/ml of apyrase and approximately 0 to 20 μg/ml of colistin. After incubation, the numbers of viable cells were determined by counting the colony forming units (CFU) on the plate (data provided as CFU/ml).

P. aeruginosa AU0584 = assay: Viable cell count (CFU) with colistin and apyrase; conditions: apyrase 2 U/ml; colistin at less than 10 μg/ml
Description: P. aeruginosa AU0584 was grown in the presence of combinations of 0 and 2 U/ml of apyrase and approximately 0 to 20 μg/ml of colistin. After incubation, the numbers of viable cells were determined by counting the colony forming units (CFU) on the plate (data provided as CFU/ml).

[6] = system: Burkholderia multivorans AU0801; assay: Viable cell count (CFU) with colistin and apyrase; conditions: apyrase 2 U/ml; colistin at less than 10 μg/ml
Description: Burkholderia multivorans AU0801 was grown in the presence of combinations of 0 and 2 U/ml of apyrase and approximately 0 to 20 μg/ml of colistin. After incubation, the numbers of viable cells were determined by counting the colony forming units (CFU) on the plate (data provided as CFU/ml).

[7] = system: Burkholderia cepacia AU1114; assay: Viable cell count (CFU) with colistin and apyrase; conditions: apyrase 2 U/ml; colistin at less than 20 μg/ml
Description: Burkholderia cepacia AU1114 was grown in the presence of combinations of 0 and 2 U/ml of apyrase and approximately 0 to 20 μg/ml of colistin. After incubation, the numbers of viable cells were determined by counting the colony forming units (CFU) on the plate (data provided as CFU/ml).

[8] = system: Burkholderia cepacia GIIIa AU0019; assay: Viable cell count (CFU) with colistin and apyrase; type: cell-based; conditions: apyrase 2 U/ml; colistin at less than 10 μg/ml
[9] = system: Burkholderia dolosa AU0589; assay: Viable cell count (CFU) with colistin and apyrase; conditions: apyrase 2 U/ml; colistin at less than 20 μg/ml
Description: Burkholderia dolosa AU0589 was grown in the presence of combinations of 0 and 2 U/ml of apyrase and approximately 0 to 20 μg/ml of colistin. After incubation, the numbers of viable cells were determined by counting the colony forming units (CFU) on the plate (data provided as CFU/ml).

A. baumannii DMC1 [10] = assay: Mouse wound model, viable bacteria at burn sites 24 hours after burn; conditions: C57BL/6 mice, colistin 4 μg/ml
Description: In addition, experiments were performed to test the synergistic killing effects of colistin and apyrase in vivo. An established mouse wound model was used for this test.
Female pathogen-free C57BL/6 mice (Harlan, Indianapolis, Ind.), 12 weeks old, weighing ˜20-23 grams were used in all experiments. The skin over the lumbrosacral and back region was clipped using a 35-W model 5-55 E electrical clipper (Oyster-Golden A-S, Head no. 80, blade size 40) by using the method described by Ipaktchi et al. with slight modification. Two hundred microliters of a 0.9% saline suspension of A. baumannii DMC1 (1×10^6 cells/ml), which is a highly colistin resistant clinical strain, was used for wound infection experiments. Viable bacterial numbers were determined 24 hours after burn. The Student t-test was used for statistical analysis.
Experiments were carried out in four groups: (1) a control group (n=6), which contained neither apyrase nor colistin; (2) apyrase group (n=9), which contained apyrase (1 U/ml); (3) colistin group (n=9), which contained colistin (4 μg/ml); and (4) apyrase and colistin group (n=9), which was treated with the combination of apyrase (1 U/ml) and colistin (4 μg/ml). The treatment was applied immediately after inoculation. After 24 hours, the mice were given lethal IP injections of pentobarbital (150 mg/kg) and skin samples were collected using a scalpel and scissors.

[11] = system: Burkholderia ambifaria AU5203; assay: Viable cell count (CFU) with colistin and apyrase; conditions: apyrase 2 U/ml; colistin at less than 20 μg/ml
Description: Burkholderia ambifaria AU5203 was grown in the presence of combinations of 0 and 2 U/ml of apyrase and approximately 0 to 20 μg/ml of colistin. After incubation, the numbers of viable cells were determined by counting the colony forming units (CFU) on the plate (data provided as CFU/ml).

[12] = system: Burkholderia cepacia GIIIb AU0055; assay: Viable cell count (CFU) with colistin and apyrase; conditions: apyrase 2 U/ml; colistin at less than 10 μg/ml
Description: Burkholderia cepacia GIIIb AU0055 was grown in the presence of combinations of 0 and 2 U/ml of apyrase and approximately 0 to 20 μg/ml of colistin. After incubation, the numbers of viable cells were determined by counting the colony forming units (CFU) on the plate (data provided as CFU/ml).

[13] = system: P. aeruginosa strain AU7443, mucoid; assay: Viable cell count (CFU) with colistin and apyrase; conditions: apyrase 2 U/ml; colistin at less than 20 μg/ml
Description: After incubation, the numbers of viable cells were determined by counting the colony forming units (CFU) on the plate (data provided as CFU/ml).

[14] = system: P. aeruginosa strain AU8104; assay: Viable cell count (CFU) with colistin and apyrase; conditions: apyrase 2 U/ml; colistin at less than 10 μg/ml
Description: P. aeruginosa strain AU8104 was grown in the presence of combinations of 0 and 2 U/ml of apyrase and approximately 0 to 20 μg/ml of colistin. After incubation, the numbers of viable cells were determined by counting the colony forming units (CFU) on the plate (data provided as CFU/ml).

A. baumannii ATCC DMC1 = assay: Mouse burn wound infection model, treatment 24 hours after inoculation; conditions: treated 24 hours after inoculation, sampled 48 hours after the burn
Description: After a burn, A. baumannii ATCC DMC1 was inoculated on skin. After 24 hours, the wounds were treated with apyrase alone, colistin alone, or apyrase and colistin in combination. Skin samples were collected after another 24 hours and the CFU/g skin of A. baumannii ATCC DMC1 was determined.

A. baumannii strain DMC1 = assay: Viable cell count (CFU) with colistin and apyrase; conditions: apyrase 1 and 2 U/ml; colistin 4 to 32 μg/ml; colistin alone at the same concentrations
Description: Approximately 10^6 CFU/ml of A. baumannii strain DMC1 was grown on solid medium culture plates in the presence of combinations of 0, 1, and 2 U/ml of apyrase and 0, 4, 8, 16, and 32 μg/ml of colistin. After incubation, the numbers of viable cells were determined by counting the colony forming units (CFU) on the plate (data provided as CFU/ml).

[15] = system: Burkholderia cepacia GIIIb AU0062; assay: Viable cell count (CFU) with colistin and apyrase; conditions: apyrase 2 U/ml; colistin at less than 20 μg/ml
Description: Burkholderia cepacia GIIIb AU0062 was grown in the presence of combinations of 0 and 2 U/ml of apyrase and approximately 0 to 20 μg/ml of colistin. After incubation, the numbers of viable cells were determined by counting the colony forming units (CFU) on the plate (data provided as CFU/ml).

MSCs = assay: Osteogenic differentiation of MSCs after burn injury (alizarin red), burn mouse model; type: in vivo
Text: (§2) At the cellular level, research has shown that aberrant expression of BMPs in adipose-derived MSCs near the wound site stimulates osteogenic differentiation of multipotent cells. […] Alizarin red is used in to determine, quantitatively by colorimetry, the presence of calcific deposition by cells of an osteogenic lineage. As such, it is a marker of matrix mineralization, a crucial step towards the formation of calcified extracellular matrix associated with true bone. Thus, alizarin red staining indicates differentiation of cells to bone lineages.
(§3) Consequently, it is contemplated that decreasing inflammation at the burn site with apyrase—thus decreasing ATP concentrations, which leads to decreased MSC BMP-2 signaling and decreased osteogenic differentiation—alleviates heterotopic ossification at wound sites.

[16] = Killing efficiency of antibacterial agents with apyrase (summary of the examples); type: cell-based; conditions: in some instances
Description: Embodiments of the technology relate to the surprising discovery that apyrase and antimicrobial agents act together synergistically. […] As such, the technology provides therapies in which antimicrobial agents are administered in lower doses (e.g., 0.01%, 0.1%, 1%, 5%, 10%, 20%, 50%, 75%, 90%, etc. of the standard recommended dosage) than in conventional technologies. Importantly, this reduces toxic side effects, if present, of antimicrobial agents in subjects and helps to prevent drug resistance of microbes. In addition, the technology provided herein comprising combined use of apyrase and antimicrobial agents provides the only treatment to kill some multiply-resistant strains of pathogens.

BMP-2 signaling = BMP-2 signaling of MSCs after burn injury, burn mouse model; type: in vivo; conditions: apyrase at the burn site
Text: as §2, §3

bacterial culture = assay: Growth of a bacterial culture (optical density at 600 nm) with apyrase; type: cell-based; conditions: presence vs absence of apyrase over 15 to 20 hours

Compound: CCC(C)CCCC(=O)N[C@@H](CCN)C(=O)N[C@H](C(=O)N[C@@H](CCN)C(=O)N[C@H]1CCNC(=O)[C@H]([C@@H](C)O)NC(=O)[C@H](CCN)NC(=O)[C@H](CCN)NC(=O)[C@H](CC(C)C)NC(=O)[C@@H](CC(C)C)NC(=O)[C@H](CCN)NC1=O)[C@@H](C)O (stereo partly drawn) [Colistin, colistin] ({Heptanoyl(5-Me)}-[Dab]T[Dab][Dab][Dab][dL]L[Dab][Dab]T; lactam 4-C)
- viable cells detected [1]: 10^7 to 10^8 CFU/ml
- viable cells detected [2]: 10^5 to 10^6 CFU/ml
- viable cell count [3]: approximately 10^5 CFU/ml
- MIC (P. aeruginosa ATCC 27853): 1 µM
- MIC (K. pneumonia AD): 16 µM
- MIC (B. multivorans AU0801): > 16 µM
- MIC (A. baumannii AC285): > 32 µM
- MIC (A. baumannii ATCC 19606): 4 µM
- MIC (A. baumannii VBA9): > 32 µM
- MIC (P. aeruginosa AU7443): > 16 µM
- MIC (P. aeruginosa AU1292): > 16 µM
- MIC (P. aeruginosa PAO300): 2 µM
- MIC (A. baumannii AC121): > 32 µM
- MIC (E. coli K-12): 2 µM
- MIC (A. baumannii DMC1 [4]): > 32 µM
- MIC (S. aureus ATCC 25923): > 32 µM
- viable cells detected [5]: 10^4 to 10^5 CFU/ml
- viable cells detected (P. aeruginosa AU0584): 10^3 to 10^4 CFU/ml
- viable cells detected [6]: 10^5 to 10^6 CFU/ml
- viable cells detected [7]: 10^5 to 10^6 CFU/ml
- viable cells detected [8]: 10^5 to 10^6 CFU/ml
- viable cells detected [9]: 10^6 to 10^7 CFU/ml
- viable bacteria number recovered from burn sites, compared with the control group (A. baumannii DMC1 [10]): no significant difference
- viable cells detected [11]: 10^5 to 10^6 CFU/ml
- viable cells detected [12]: 10^4 to 10^5 CFU/ml
- viable cells detected [13]: 10^4 to 10^5 CFU/ml
- viable cells detected [14]: 10^5 to 10^6 CFU/ml
- A. baumannii detected on skin (A. baumannii ATCC DMC1): approximately 10^8 CFU/g of skin
- viable cell count (A. baumannii strain DMC1): approximately 10^7 CFU/ml
- viable cells detected [15]: 10^4 to 10^5 CFU/ml

Compound: apyrase
- osteogenic differentiation of MSCs (alizarin red) (MSCs; after burn injury and apyrase treatment): significant decrease
- osteogenic capacity of the MSCs (MSCs; apyrase at the burn site): decreased
- A. baumannii detected on skin (A. baumannii ATCC DMC1): approximately 10^8 CFU/g of skin
- increase of the killing efficiency of antibacterial agents [16]: 1000 times
- level of BMP-2 signaling of the MSCs (BMP-2 signaling): decreased
- growth of a bacterial culture (optical density at 600 nm) (bacterial culture): does not affect bacterial growth
